Values of other authors as cited in publication PMC11477967, “Review of the Structural Characteristics and Biological Activities of Tricholoma Secondary Metabolites (2018–2023)” (Molecules, 2024).

Key:
HeLa = tested on: HeLa; design: method as in PMID 33449279
human cancer cell lines = settings: for Bioactivities: Cytotoxic against human cancer cell lines: Table 1 summary; for cytotoxicity rank: among 55, 56, 58, 60, 61, cell line not specified
MCF-7 [1] = tested on: MCF-7; design: method as in PMID 37175274
Hep G2 [2] = tested on: Hep G2; design: method as in PMID 37175274
A549 = tested on: A549; design: method as in doi:10.1177/1934578X1801300901; settings: said to surpass shikonin
Caki-1 [3] = tested on: Caki-1; design: method as in PMID 37175274
A-549 = tested on: A-549; design: method as in PMID 37175274
MCF-7 [4] = tested on: MCF-7; design: method as in doi:10.1177/1934578X1801300901
Hep G2 [5] = tested on: Hep G2; design: method as in doi:10.1177/1934578X1801300901; settings: said to surpass shikonin
Caki-1 [6] = tested on: Caki-1; design: method as in doi:10.1177/1934578X1801300901
WISH = tested on: WISH; design: method as in doi:10.1177/1934578X1801300901
[7] = design: method as in PMID 36480815; settings: Table 1 summary
S. epidermidis = tested on: S. epidermidis; design: method as in PMID 28794307
E. coli = tested on: E. coli; design: method as in PMID 28794307
Bacillus subtilis = tested on: Bacillus subtilis; design: method as in PMID 28794307
bacteria = tested on: bacteria; design: method as in PMID 32534274, PMID 26186257, PMID 34604687, PMID 28794307; settings: Table 1 summary
S. aureus = tested on: S. aureus; design: method as in PMID 28794307
[8] = design: method as in doi:10.1016/0040-4039(96)01329-9; settings: solutions containing trace inorganic acids

## C=C1CCC(CCC2CC=C(C3(C)CCC(=O)C(C)(C)O3)OC2)C(C)(C)C1CC=C1CCOC1=O (stereo not shown) [Compound 64, tricholopardin D]
HeLa
  cytotoxicity: cytotoxicity
Human cancer cell lines
  Bioactivities: Cytotoxic against human cancer cell lines: Cytotoxic against human cancer cell lines

## C=C1CCC(CC=C2CCC3(OC2)OC2(O)CCC3(C)OC2(C)C)C(C)(C)C1CC=C1C(=O)OCC1O (stereo not shown) [Compound 60, saponaceolide F]
MCF-7 [1]
  inhibitory effects: notable inhibitory effects
Hep G2 [2]
  inhibitory effects: notable inhibitory effects
Human cancer cell lines
  Bioactivities: Cytotoxic against human cancer cell lines: Cytotoxic against human cancer cell lines
  cytotoxicity rank: most significant cytotoxicity
A549
  antiproliferative effects: strong antiproliferative effects
Caki-1 [3]
  inhibitory effects: notable inhibitory effects
A-549
  inhibitory effects: notable inhibitory effects
MCF-7 [4]
  antiproliferative effects: strong antiproliferative effects
Hep G2 [5]
  antiproliferative effects: strong antiproliferative effects
Caki-1 [6]
  antiproliferative effects: strong antiproliferative effects
WISH
  antiproliferative effects: strong antiproliferative effects

## CC(C)C(C)/C=C/C(C)C1CCC2C3=CC4OC45C[C@@H](O)CC[C@]5(C)C3CC[C@@]21C (stereo partly drawn) [Compound 52, 5α,6α-epoxy-ergosta-7,22-dien,3β-ol]
HT29
  cytotoxic activity: selectively inhibited
H1299
  cytotoxic activity: selectively inhibited
MCF7
  cytotoxic activity: selectively inhibited
[7]
  Bioactivities: Antioxidant activity: Antioxidant activity
L929
  toxicity to normal or healthy cell lines: almost no toxicity

## C=C1CCC(CCC2CCC3(OC2)OC2(O)CCC3(C)OC2(C)C)C(C)(C)C1CC=C1C(=O)OCC1O (stereo not shown) [Compound 56, saponaceolide A]
MCF-7 [1]
  inhibitory effects: notable inhibitory effects
Hep G2 [2]
  inhibitory effects: notable inhibitory effects
Human cancer cell lines
  Bioactivities: Cytotoxic against human cancer cell lines: Cytotoxic against human cancer cell lines
  cytotoxicity rank: most significant cytotoxicity
A549
  antiproliferative effects: strong antiproliferative effects
Caki-1 [3]
  inhibitory effects: notable inhibitory effects
A-549
  inhibitory effects: notable inhibitory effects
MCF-7 [4]
  antiproliferative effects: strong antiproliferative effects
Hep G2 [5]
  antiproliferative effects: strong antiproliferative effects
Caki-1 [6]
  antiproliferative effects: strong antiproliferative effects
WISH
  antiproliferative effects: strong antiproliferative effects

## C=CC(O)CCCCC (stereo not shown) [Compound 93, 1-octen-3-ol]
S. epidermidis
  antibacterial activity: strong antibacterial activity
E. coli
  antibacterial activity: strong antibacterial activity
Bacillus subtilis
  antibacterial activity: strong antibacterial activity
bacteria
  Bioactivities: Antibacterial activity: Antibacterial activity
S. aureus
  antibacterial activity: strong antibacterial activity

## CC(C)C(C)/C=C/[C@@H](C)C1CCC2C3=C[C@@H](O)[C@@]45C[C@@H](O)CC[C@]4(C)[C@]3(CC[C@@]21C)O5 (stereo partly shown) [Compound 51, anatoluin B]
Human cancer cell lines
  cytotoxic activity: good cytotoxic activity
H1299
  cytotoxic activity: selectively inhibited
MCF7
  cytotoxic activity: selectively inhibited
[7]
  Bioactivities: Antioxidant activity: Antioxidant activity
L929
  toxicity to normal or healthy cell lines: almost no toxicity

## C=C(C#CC1=CC(OC(C)=O)CC(OC(=O)C(C)=CCCC(=C)C#CC2=CC(OC(C)=O)C3OC3C2=O)C1=O)CCC=C(C)C(=O)O (stereo not shown) [Compound 79, tricholomenyn C]
[8]
  stability: easily decomposes
